Measured values: patent publication US10760052B2, “Method of inhibiting tau phosphorylation” (priority 2012, dated 2020)
Read-outs that look alike come from different tables or passages of the source.

Biological target: T1, mu opiate receptor (MOR) (Rattus norvegicus, UniProt P33535)
T1 construct: from tissue; host or cells: striatum (membrane preparation)
Format: biochemical

[1] = [35S]GTPγS binding to Gαo in striatal membranes, compound 0.1 μM
[2] = [35S]GTPγS binding to Gαo in striatal membranes, compound 1 μM
[3] = [35S]GTPγS binding to Gαo in striatal membranes, compound 1 μM plus 1 μM β-funaltrexamine (MOR antagonist)
[4] = 0.1 μM compound, striatal membranes, Series C-2
[5] = 1 μM compound + 1 μM β-FNA (selective MOR antagonist), Series C-2
[6] = 1 μM compound, striatal membranes, Series C-2

T1 sequence (P33535 whole entry): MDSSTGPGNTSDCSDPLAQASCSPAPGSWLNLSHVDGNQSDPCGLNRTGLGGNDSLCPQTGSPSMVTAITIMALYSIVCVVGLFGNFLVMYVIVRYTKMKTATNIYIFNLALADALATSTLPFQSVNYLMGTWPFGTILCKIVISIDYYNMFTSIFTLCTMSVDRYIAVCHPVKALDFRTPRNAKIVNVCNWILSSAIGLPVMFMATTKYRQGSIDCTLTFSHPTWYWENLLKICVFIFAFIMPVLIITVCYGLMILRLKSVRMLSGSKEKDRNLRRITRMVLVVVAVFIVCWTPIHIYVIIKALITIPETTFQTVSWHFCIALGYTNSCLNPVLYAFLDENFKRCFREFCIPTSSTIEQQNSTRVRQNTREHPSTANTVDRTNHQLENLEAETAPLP

SMILES	% DAMGO (0.1 μM)	% DAMGO (1 μM)	% DAMGO + BFNA	Concentration of FLNA-Binding Compound as Agonist 0.1 μM [1]	Concentration of FLNA-Binding Compound as Agonist 1 μM [2]	Concentration of FLNA-Binding Compound as Agonist 1 μM + BFNA [3]	Concentration of FLNA-Binding Compound as Agonist 0.1 μM	Concentration of FLNA-Binding Compound as Agonist 1 μM	Concentration of FLNA-Binding Compound as Agonist 1 μM + BFNA	[35S]GTPγS binding, FLNA-Binding Compound as Agonist at 0.1 μM	[35S]GTPγS binding, FLNA-Binding Compound as Agonist at 1 μM	[35S]GTPγS binding, FLNA-Binding Compound as Agonist at 1 μM + BFNA	[35S]GTPγS binding, FLNA-Binding Compound as Agonist at 0.1 μM [4]	[35S]GTPγS binding, FLNA-Binding Compound as Agonist at 1 μM + BFNA [5]	[35S]GTPγS binding, FLNA-Binding Compound as Agonist at 1 μM [6]
CC(C)c1ccc(S(=O)(=O)N2CCC3(CC2)OCCN3S(=O)(=O)c2ccc(C(C)C)cc2)cc1 [Compound C0007]	46.0%	70.5%	17.0%	79.1%	195.0%	10.9%									
N#Cc1ccc(S(=O)(=O)N2CCC3(CC2)OCCN3S(=O)(=O)c2ccc(C#N)cc2)cc1 [Compound C0008]	41.4%	72.9%	4.4%	71.2%	201.6%	2.8%									
CS(=O)(=O)c1ccc(S(=O)(=O)N2CCC3(CC2)OCCN3S(=O)(=O)c2ccc(S(C)(=O)=O)cc2)cc1 [Compound C0009]	85.1%	92.6%	41.2%	146.3%	256.2%	26.4%									
O=S(=O)(c1ccc(-c2ccccc2)cc1)N1CCC2(CC1)OCCN2S(=O)(=O)c1ccc(-c2ccccc2)cc1 [Compound C0010]	80.7%	114.9%	135.0%	136.5%	307.0%	89.1%									
CC(=O)c1ccc(S(=O)(=O)N2CCC3(CC2)OCCN3S(=O)(=O)c2ccc(C(C)=O)cc2)cc1 [Compound C0011]	126.8%	114.3%	36.5%				217.0%	305.0%	19.0%	217.0%	305.0%	19.0%			
O=S(=O)(c1ccc(C(F)(F)F)cc1)N1CCC2(CC1)OCCN2S(=O)(=O)c1ccc(C(F)(F)F)cc1 [Compound C0012]	54.8%	86.7%	280.7%	96.8%	224.8%	184.4%									
CC(=O)Nc1ccc(S(=O)(=O)N2CCC3(CC2)OCCN3S(=O)(=O)c2ccc(NC(C)=O)cc2)cc1 [Compound C0013]	91.0%	108.9%	61.8%	156.6%	301.2%	39.6%									
Cc1cccc(S(=O)(=O)N2CCC3(CC2)OCCN3S(=O)(=O)c2cccc(C)c2)c1 [Compound C0014]	82.0%	59.2%	116.1%	144.9%	153.5%	76.3%									
Cc1ccccc1S(=O)(=O)N1CCC2(CC1)OCCN2S(=O)(=O)c1ccccc1C [Compound C0015]	78.5%	78.9%	193.0%	138.7%	204.7%	126.8%									
O=S(=O)(c1ccccc1)N1CCC2(CC1)OCCN2S(=O)(=O)c1ccccc1 [Compound C0016]	100.4%	83.3%	150.9%	172.7%	230.5%	96.7%									
COc1ccc(C(=O)N2CCC3(CC2)OCCN3C(=O)c2ccc(OC)cc2)cc1 [Compound C0017]	87.1%	109.7%	143.2%	153.8%	284.5%	94.1%									
COc1ccc(C(=O)N2CCC3(CC2)OCCN3S(=O)(=O)c2ccc(OC)cc2)cc1 [Compound C0018]	110.7%	95.5%	162.1%	195.5%	247.7%	106.5%									
COc1ccc(C(=O)N2CCOC23CCN(S(=O)(=O)c2ccc(OC)cc2)CC3)cc1 [Compound C0019]	59.1%	68.1%	80.4%	104.4%	176.6%	52.8%									
O=C(O)c1ccc(C(=O)N2CCC3(CC2)OCCN3S(=O)(=O)c2ccc(C(=O)O)cc2)cc1 [Compound C0021]	94.5%	87.8%	546.4%	159.7%	192.0%	90.7%									
O=C(c1ccc([N+](=O)[O-])cc1)N1CCC2(CC1)OCCN2S(=O)(=O)c1ccc([N+](=O)[O-])cc1 [Compound C0022]	113.5%	123.2%	25.7%	194.3%	328.7%	13.4%									
Nc1ccc(C(=O)N2CCC3(CC2)OCCN3S(=O)(=O)c2ccc(N)cc2)cc1 [Compound C0023]	89.5%	87.6%	44.5%	153.2%	233.7%	23.2%									
CNc1ccc(S(=O)(=O)N2CCC3(CC2)OCCN3S(=O)(=O)c2ccc(NC)cc2)cc1 [Compound C0024]	92.8%	84.1%	135.1%	178.4%	229.6%	59.3%									
O=S(=O)(c1ccc(Br)cc1)N1CCC2(CC1)OCCN2S(=O)(=O)c1ccc(Br)cc1 [Compound C0025]	122.6%	117.5%	182.7%	235.7%	320.7%	80.2%									
COc1ccc(S(=O)(=O)N2CCC3(CC2)NCCO3)cc1 [Compound C0026]	107.7%	105.6%	48.3%										207.2%	21.2%	288.4%
COc1ccc(S(=O)(=O)N2CCOC23CCNCC3)cc1 [Compound C0027]	121.3%	115.0%	164.5%										233.2%	72.2%	313.9%
COC(=O)c1ccc(S(=O)(=O)N2CCC3(CC2)OCCN3S(=O)(=O)c2ccc(C(=O)OC)cc2)cc1 [Compound C0028]	55.6%	60.5%	472.3%	93.9%	132.4%	78.4%									
O=S(=O)(c1ccc(F)cc1)N1CCC2(CC1)OCCN2S(=O)(=O)c1ccc(F)cc1 [Compound C0029]	91.2%	113.1%	37.8%	175.4%	308.8%	16.6%									
CCCCc1ccc(S(=O)(=O)N2CCC3(CC2)OCCN3S(=O)(=O)c2ccc(CCCC)cc2)cc1 [Compound C0030]	96.0%	98.0%	291.4%	150.3%	226.8%	95.0%									
O=C(c1ccc([N+](=O)[O-])cc1)N1CCC2(CC1)OCCN2C(=O)c1ccc([N+](=O)[O-])cc1 [Compound C0032]	92.8%	87.3%	248.2%	145.4%	202.0%	80.9%									
O=C(c1ccc([N+](=O)[O-])cc1)N1CCC2(CC1)OCCN2S(=O)(=O)c1ccc([N+](=O)[O-])cc1 [Compound C0033]	85.9%	80.6%	235.0%	134.5%	186.4%	76.6%									
NS(=O)(=O)c1ccc(S(=O)(=O)N2CCC3(CC2)OCCN3S(=O)(=O)c2ccc(S(N)(=O)=O)cc2)cc1 [Compound C0034]	61.3%	76.7%	482.5%				103.6%	167.9%	80.1%						
